Tests used:
[1] = test system: gastric cancer cells (MKN45); test: WST-8 cell proliferation assay, gastric cancer cells; type: cell-based, human; conditions: MKN45, cultured for 24 hours, WST-8 assay, DMSO control = 100%
Method: (§1) For cell culture, RPMI1640 medium (manufactured by Gibco Co., Ltd.) and DMEM medium (manufactured by Gibco Co., Ltd.) were mixed in a ratio of 1:1 and supplied 7% FBS (fetal bovine serum, manufactured by Nichirei Biosciences Inc.) and antibiotic mixture (mixture of penicillin, streptomycin, amphotericin B Mix, 100-fold concentrated solution (Nakarai Co.). Trypsinized cells were diluted to 1×10^5 cells/ml and seeded at 400 μl/well in 48-well dishes. Immediately after seeding, the test compound (dissolved in DMSO) was added to a final concentration of 0.5%, cultured for 24 hours in a CO2 incubator under an atmosphere of 5% of CO2, at a temperature of 36° C. to 37° C. After culturing, WST-8 assay was performed. An activity value of DMSO control was set to 100%, and the activities of each cell to which the test compound was added were investigated.
(§2) To 400 μl of cells culture, 18 μl of Cell Count Reagent SF (manufactured by Nacalai Inc.) was added. After being cultured for 2 to 3 hours (in a case where activity is low, cultured for 19 hours) under an atmosphere of 5% of CO2, at a temperature of 36° C. to 37° C., the broth was stirred, and the amount of formazan produced in the broth was calculated from absorbance at a wavelength of 450 nm. Using a measured value at a wavelength of 600 nm as a control, OD450-OD600 was set to an activity value.

[2] = test system: normal embryonic kidney-derived cells (HEK293F); test: WST-8 cell proliferation assay, normal embryonic kidney-derived cells; type: cell-based; conditions: cultured for 24 hours, WST-8 assay, DMSO control = 100%
Method: as §1, §2

[3] = test system: acute lymphoblastic leukemia T-cells (Molt-4); test: WST-8 cell proliferation assay, acute lymphoblastic leukemia T-cells; type: cell-based, human; conditions: Molt-4, cultured for 24 hours, WST-8 assay, DMSO control = 100%
Method: as §1
as §2, with “value. […]” for “value.”

[4] = test system: cervical cancer cells (HeLa); test: Combination with cisplatin, survival rate of tumor cells (WST-8); type: cell-based, human
Method: as §1, with “After culturing, WST-8 assay was performed. An activity value of DMSO control was set to 100%, and the activities of each cell to which the test compound was added were investigated.” left out
as §2, with “value. […]” for “value.”
The survival rate of the tumor cells was calculated, in the same manner as in Example 4 except that 15 μM of the glycoside compound and 333 μM of cisplatin were added to the medium immediately after seeding the tumor cells. […]

[5] = test system: renal cancer cells (ACHN); test: Combination with paclitaxel, survival rate of tumor cells (WST-8); type: cell-based, human; conditions: 29 nM paclitaxel alone
Method: as §1, with “After culturing, WST-8 assay was performed. An activity value of DMSO control was set to 100%, and the activities of each cell to which the test compound was added were investigated.” left out
as §2, with “value. […]” for “value.”
A survival rate of the tumor cells was calculated, in the same manner as in Example 4 except that 5 μM of the glycoside compound and 29 nM of paclitaxel were added to the medium immediately after seeding the tumor cells.

[6] = test system: urinary bladder cancer cells (T24); test: Combination with doxorubicin, survival rate of tumor cells (WST-8); type: cell-based, human; conditions: T24, 10 μM doxorubicin alone
Method: as §1
as §2, with “value. […]” for “value.”

CCCCCCCC(=O)O[C@@H]1[C@H](OC[C@@H](O)[C@@H](O)[C@H](O)[C@H](O)[C@@H](O)CO)O[C@H](COC(=O)CCCCC)[C@@H](OC(=O)CCCCC)[C@@H]1OC(=O)CCCCC [Preparation Example 24, D-glycero-D-galactoheptitol-1-yl 3,4,6-tri-O-hexanoyl-2-O-octanoyl-β-D-mannopyranoside]
IC50 [1]: 16 µM | IC50 [2]: 21.8 µM | IC50 [3]: 8.1 µM

N.N.[Cl][Pt][Cl] [cisplatin]
Survival Rate after 19 Hours ([4]; 42 μM cisplatin alone, WST-8 incubated for 19 hours): 106.8% | Survival Rate after 2 Hours ([4]; 333 μM cisplatin alone, WST-8 incubated for 2 hours): 58.8%

CC(=O)O[C@H]1C(=O)[C@@]2(C)[C@H]([C@H](OC(=O)c3ccccc3)[C@]3(O)C[C@H](OC(=O)[C@H](O)[C@@H](NC(=O)c4ccccc4)c4ccccc4)C(C)=C1C3(C)C)[C@]1(OC(C)=O)CO[C@@H]1C[C@@H]2O [paclitaxel]
survival rate of the tumor cells [5]: 63.8%

COc1cccc2c1C(=O)c1c(O)c3c(c(O)c1C2=O)C[C@@](O)(C(=O)CO)C[C@@H]3O[C@H]1C[C@H](N)[C@H](O)[C@H](C)O1 [doxorubicin]
survival rate of the tumor cells [6]: 57.3%

From patent US9828406B2, “Antitumor agent” (KINKI UNIVERSITY, priority 2011, dated 2017)
